molecular target: T1, glucosylceramide synthase (Homo sapiens, UniProt Q16739); assay: Glucosylceramide synthase (GCS) enzyme assay, microsome fraction, C8 glucosylceramide quantified by Rapidfire MS/MS; assay type: biochemical; conditions: test compound 10 μM; 1.7 μM UDP-glucose, 3 μM C8 ceramide; room temperature 60 min; read-out: GCS enzyme inhibitory rate at 10 μM (%) (% of control)
T1 construct: made in house; host or cells: Expi293F cells (transient expression, pcDNA3.3-TOPO vector); microsome fraction used as enzyme source
T1 sequence (Q16739 1-394): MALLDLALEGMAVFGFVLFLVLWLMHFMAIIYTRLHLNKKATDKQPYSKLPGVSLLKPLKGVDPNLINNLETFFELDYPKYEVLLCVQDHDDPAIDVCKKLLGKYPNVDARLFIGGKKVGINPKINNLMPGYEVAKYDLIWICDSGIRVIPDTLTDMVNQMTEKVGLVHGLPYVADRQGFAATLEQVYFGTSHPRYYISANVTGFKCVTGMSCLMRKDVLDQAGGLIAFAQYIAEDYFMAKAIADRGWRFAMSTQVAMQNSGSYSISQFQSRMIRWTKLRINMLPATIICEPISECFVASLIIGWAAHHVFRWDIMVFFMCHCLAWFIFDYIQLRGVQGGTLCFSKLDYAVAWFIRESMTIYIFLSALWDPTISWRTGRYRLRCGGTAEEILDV
Procedure, shortened: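 Test compound, 10 μM final, was run against human GCS from transfected Expi293F microsome fractions, using substrate solution of 6 μM C8 ceramide (in DOPC liposomes) plus 3.4 μM UDP-glucose, pH 7.5 Tris buffer, 60 min, room temperature. Product C8 glucosylceramide measured by Rapidfire MS/MS against an internal standard, % inhibition referenced to no-enzyme and DMSO wells.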

Row | SMILES | inhibition at 10 µM [%]
1 | COc1ccccc1-c1nccc2c1CN(c1ccc(F)cc1)C2=O [Example 1, 2-(4-fluorophenyl)-4-(2-methoxyphenyl)-2,3-dihydro-1H-pyrrolo[3,4-c]pyridin-1-one] | 78
2 | Fc1ccc(N2Cc3ccnc(-c4ccc(F)cc4OCC(F)(F)F)c3C2)cc1 [Example 111, 2-(4-fluorophenyl)-4-[4-fluoro-2-(2,2,2-trifluoroethoxy)phenyl]-2,3-dihydro-1H-pyrrolo[3,4-c]pyridine] | 92
3 | O=C1c2ccnc(-c3ccc(F)cc3OC(F)F)c2CN1c1ccc(OC(F)(F)F)cn1 [Example 57, 4-[2-(difluoromethoxy)-4-fluorophenyl]-2-[5-(trifluoromethoxy)pyridin-2-yl]-2,3-dihydro-1H-pyrrolo[3,4-c]pyridin-1-one] | 74
4 | O=C1c2ccnc(-c3ccncc3OCC(F)(F)F)c2CN1c1ccc(OC(F)F)cc1 [Example 104, 2-[4-(difluoromethoxy)phenyl]-4-[3-(2,2,2-trifluoroethoxy)pyridin-4-yl]-2,3-dihydro-1H-pyrrolo[3,4-c]pyridin-1-one] | 99
5 | CCS(=O)(=O)c1ccc(N2Cc3c(ccnc3-c3ccc(F)cc3OCC(F)(F)F)C2=O)cc1 [Example 110, 2-[4-(ethanesulfonyl)phenyl]-4-[4-fluoro-2-(2,2,2-trifluoroethoxy)phenyl]-2,3-dihydro-1H-pyrrolo[3,4-c]pyridin-1-one] | 97
6 | CC(C)(O)COc1ccc(N2Cc3c(ccnc3-c3ccccc3OCC(F)(F)F)C2=O)cc1 [Example 195, 2-[4-(2-hydroxy-2-methylpropoxy)phenyl]-4-[2-(2,2,2-trifluoroethoxy)phenyl]-2,3-dihydro-1H-pyrrolo[3,4-c]pyridin-1-one] | 100
7 | O=C(c1ccc(N2Cc3c(ccnc3-c3ccc(F)cc3OCC(F)(F)F)C2=O)cc1)N1CCCC1 [Example 180, 4-[4-fluoro-2-(2,2,2-trifluoroethoxy)phenyl]-2-[4-(pyrrolidine-1-carbonyl)phenyl]-2,3-dihydro-1H-pyrrolo[3,4-c]pyridin-1-one] | 92
8 | CN(C)C(=O)c1ccc(N2Cc3c(ccnc3-c3ccc(F)cc3OCC(F)(F)F)C2=O)cc1 [Example 102, 4-{4-[4-fluoro-2-(2,2,2-trifluoroethoxy)phenyl]-1-oxo-1,3-dihydro-2H-pyrrolo[3,4-c]pyridin-2-yl}-N,N-dimethylbenzamide] | 90
9 | O=C(c1ccc(N2Cc3c(ccnc3-c3ccc(F)cc3OCC(F)(F)F)C2=O)cc1)N1CC(F)(F)C1 [Example 181, 2-[4-(3,3-difluoroazetidine-1-carbonyl)phenyl]-4-[4-fluoro-2-(2,2,2-trifluoroethoxy)phenyl]-2,3-dihydro-1H-pyrrolo[3,4-c]pyridin-1-one] | 89
10 | CN(C)C(=O)c1ccc(N2Cc3cnn(-c4ccccc4OCC(F)(F)F)c3C2)cc1 [Example 217, N,N-dimethyl-4-{1-[2-(2,2,2-trifluoroethoxy)phenyl]-4,6-dihydropyrrolo[3,4-c]pyrazol-5(1H)-yl}benzamide] | 98
11 | CCOC(=O)c1ccc(-c2nccc3c2CN(c2ccc(F)cc2)C3=O)c(OC)c1 [Example 48, ethyl 4-[2-(4-fluorophenyl)-1-oxo-2,3-dihydro-1H-pyrrolo[3,4-c]pyridin-4-yl]-3-methoxybenzoate] | 70
12 | N#CCOc1cc(F)ccc1-c1nccc2c1CN(c1ccc(OC(F)F)nc1)C2=O [Example 112, (2-{2-[6-(difluoromethoxy)pyridin-3-yl]-1-oxo-2,3-dihydro-1H-pyrrolo[3,4-c]pyridin-4-yl}-5-fluorophenoxy)acetonitrile] | 98
13 | COc1cccc(F)c1-c1nccc2c1CN(c1ccc(F)cc1)C2=O [Example 142, 4-(2-fluoro-6-methoxyphenyl)-2-(4-fluorophenyl)-2,3-dihydro-1H-pyrrolo[3,4-c]pyridin-1-one] | 77
14 | CC(c1ccc(N2Cc3c(ccnc3-c3ccc(F)cc3OCC(F)(F)F)C2=O)cc1)N1CCCC1=O (racemic) [Example 232, rac-4-[4-fluoro-2-(2,2,2-trifluoroethoxy)phenyl]-2-{4-[1-(2-oxopyrrolidin-1-yl)ethyl]phenyl}-2,3-dihydro-1H-pyrrolo[3,4-c]pyridin-1-one] | 82
15 | Cn1nc2c(c1-c1ccccc1OCC(F)(F)F)CN(c1ccc(F)cc1)C2 [Example 206, 5-(4-fluorophenyl)-2-methyl-3-[2-(2,2,2-trifluoroethoxy)phenyl]-2,4,5,6-tetrahydropyrrolo[3,4-c]pyrazole] | 66
16 | CC(C)(C#N)COc1cc(F)ccc1-c1nccc2c1CN(c1ccc(OC(F)F)nc1)C2=O [Example 171, 3-(2-{2-[6-(difluoromethoxy)pyridin-3-yl]-1-oxo-2,3-dihydro-1H-pyrrolo[3,4-c]pyridin-4-yl}-5-fluorophenoxy)-2,2-dimethylpropanenitrile] | 52
17 | O=C1c2ccnc(-c3ccc(F)cc3OCc3ccccc3)c2CN1c1ccc(OC(F)F)nc1 [Example 101, 4-[2-(benzyloxy)-4-fluorophenyl]-2-[6-(difluoromethoxy)pyridin-3-yl]-2,3-dihydro-1H-pyrrolo[3,4-c]pyridin-1-one] | 79
18 | CCC(=O)c1ccc(N2Cc3c(ccnc3-c3ccccc3OCC(F)(F)F)C2=O)cc1 [Example 190, 2-(4-propanoylphenyl)-4-[2-(2,2,2-trifluoroethoxy)phenyl]-2,3-dihydro-1H-pyrrolo[3,4-c]pyridin-1-one] | 98
19 | COc1ccccc1-c1nccc2c1CN(c1ccc(C(F)(F)F)cn1)C2=O [Example 32, 4-(2-methoxyphenyl)-2-[5-(trifluoromethyl)pyridin-2-yl]-2,3-dihydro-1H-pyrrolo[3,4-c]pyridin-1-one] | 93
20 | O=C(c1ccc(N2Cc3c(ccnc3-c3ccc(F)cc3OCC(F)(F)F)C2=O)cc1)N1CCOCC1 [Example 152, 4-[4-fluoro-2-(2,2,2-trifluoroethoxy)phenyl]-2-[4-(morpholine-4-carbonyl)phenyl]-2,3-dihydro-1H-pyrrolo[3,4-c]pyridin-1-one] | 90

Now from value to compound:

Row | inhibition at 10 µM [%] | SMILES
21 | 100 | Cc1cc2c(c(-c3ccc(F)cc3OCC(F)(F)F)n1)CN(c1ccc(C3(O)CCOCC3)cc1)C2=O [Example 352, 4-[4-fluoro-2-(2,2,2-trifluoroethoxy)phenyl]-2-[4-(4-hydroxyoxan-4-yl)phenyl]-6-methyl-2,3-dihydro-1H-pyrrolo[3,4-c] pyridin-1-one]
22 | 99 | CC(C)(O)COc1ccc(N2Cc3c(ccnc3-c3ccc(F)cc3OCC(F)(F)F)C2=O)cc1 [Example 254, 4-[4-fluoro-2-(2,2,2-trifluoroethoxy)phenyl]-2-[4-(2-hydroxy-2-methylpropoxy)phenyl]-2,3-dihydro-1H-pyrrolo[3,4-c]pyridin-1-one]
23 | 101 | CC(C)(O)c1ccc(N2Cc3c(cc(C4CCCOC4)nc3-c3ccccc3OCC(F)(F)F)C2=O)cc1 (racemic) [Example 387, rac-2-[4-(2-hydroxypropan-2-yl)phenyl]-6-(oxan-3-yl)-4-[2-(2,2,2-trifluoroethoxy)phenyl]-2,3-dihydro-1H-pyrrolo[3,4-c]pyridin-1-one]
24 | 100 | CC(C)(O)c1cc2c(c(-c3ccccc3OCC(F)F)n1)CN(c1ccc(OC(F)F)cc1)C2=O [Example 355, 4-[2-(2,2-difluoroethoxy)phenyl]-2-[4-(difluoromethoxy)phenyl]-6-(2-hydroxypropan-2-yl)-2,3-dihydro-1H-pyrrolo[3,4-c]pyridin-1-one]
25 | 100 | Cn1cc2c(c(-c3ccccc3OCC(F)(F)F)c1=O)CN(c1ccc(OC(F)F)cc1)C2=O [Example 236, 2-[4-(difluoromethoxy)phenyl]-5-methyl-7-[2-(2,2,2-trifluoroethoxy)phenyl]-1H-pyrrolo[3,4-c]pyridine-3,6(2H,5H)-dione]
26 | 100 | CC(O)(c1ccc(N2Cc3c(ccnc3-c3ccccc3OCC(F)(F)F)C2=O)cc1)C(F)F (racemic) [Example 308, rac-2-[4-(1,1-difluoro-2-hydroxypropan-2-yl)phenyl]-4-[2-(2,2,2-trifluoroethoxy)phenyl]-2,3-dihydro-1H-pyrrolo[3,4-c]pyridin-1-one]
27 | 100 | CC(C)(O)c1ccc(N2Cc3c(cc(C(F)F)nc3-c3ccccc3OCC(F)(F)F)C2=O)cc1 [Example 327, 6-(difluoromethyl)-2-[4-(2-hydroxypropan-2-yl)phenyl]-4-[2-(2,2,2-trifluoroethoxy)phenyl]-2,3-dihydro-1H-pyrrolo[3,4-c]pyridin-1-one]
28 | 100 | CC(O)c1cc2c(c(-c3ccccc3OCC(F)F)n1)CN(c1ccc(OC(F)F)cc1)C2=O (racemic) [Example 358, rac-4-[2-(2,2-difluoroethoxy)phenyl]-2-[4-(difluoromethoxy)phenyl]-6-(1-hydroxyethyl)-2,3-dihydro-1H-pyrrolo[3,4-c]pyridin-1-one]
29 | 99 | CC(C)(O)c1ccc(N2Cc3c(ccnc3-c3ccc(F)cc3OCC(F)(F)F)C2=O)nc1 [Example 234, 4-[4-fluoro-2-(2,2,2-trifluoroethoxy)phenyl]-2-[5-(2-hydroxypropan-2-yl)pyridin-2-yl]-2,3-dihydro-1H-pyrrolo[3,4-c]pyridin-1-one]

Reference: patent publication US12528802B2, “Heterocyclic compound” (Takeda Pharmaceutical Company Limited, priority 2019, dated 2026)
